These results are taken from patent publication US20130310427A1, “INHIBITORS OF HCV NS5A PROTEIN” (PRESIDIO PHARMACEUTICALS, INC., priority 2010, published 2013).

The assay concerns bicistronic genotype 1b replicon in Huh 7 cells (1b_Huh-Luc/Neo-ET cell line). The experiment in a line: HCV replicon assay, luciferase enzyme activity readout. It is filed as cell-based. The note with it: Hepatitis C virus, 1b_Huh-Luc/Neo-ET replicon cells, 72 h incubation, Bright-Glo luciferase readout, EC50 ranges, read-out: Inhibition of HCV genotype 1b. Here is the method:
Biological activity of the compounds of the invention was determined using an HCV replicon assay. The 1b_Huh-Luc/Neo-ET cell line persistently expressing a bicistronic genotype 1b replicon in Huh 7 cells was obtained from ReBLikon GMBH. This cell line was used to test compound inhibition using luciferase enzyme activity readout as a measurement of compound inhibition of replicon levels.
On Day 1 (the day after plating), each compound is added in triplicate to the cells. Plates incubated for 72 h prior to running the luciferase assay. Enzyme activity was measured using a Bright-Glo Kit (cat. number E2620) manufactured by Promega Corporation. The following equation was used to generate a percent control value for each compound.
% Control=(Average Compound Value/Average Control)*100
The EC50 value was determined using GraphPad Prism and the following equation:
Y=Bottom+(Top−Bottom)/(1+10̂((Log IC50−X)*HillSlope))
EC50 values of compounds are repeated several times in the replicon assay.
For orientation: In antiviral work, replicon cells carry a viral genome segment that copies itself.

For `COC(=O)N[C@H](C(=O)N1CC(C)=C[C@H]1c1ncc(-c2ccc(C#Cc3ccc(-c4cnc([C@@H]5CCCN5C(=O)[C@@H](NC(=O)OC)C(C)C)[nH]4)cc3)cc2)[nH]1)C(C)C` [Compound 103], the EC50 was less than 1 nM.
Take `COC(=O)N[C@H](C(=O)N1CC(C2CC2)=C[C@H]1c1ncc(-c2ccc(C#Cc3ccc(-c4cnc([C@@H]5CCCN5C(=O)[C@@H](NC(=O)OC)C(C)C)[nH]4)cc3)cc2)[nH]1)C(C)C` [Compound 110]: the EC50 is less than 1 nM.
As for `COC(=O)N[C@H](C(=O)N1CC(C2CC2)=C[C@H]1c1nc2ccc(-c3ccc4cc(-c5cnc([C@@H]6CCCN6C(=O)[C@@H](NC(=O)OC)C(C)C)[nH]5)ccc4c3)cc2[nH]1)C(C)C` [Compound 114], the figure is less than 1 nM; as for `COC(=O)N[C@H](C(=O)N1CC(C)=C[C@H]1c1ncc(-c2ccc(C#Cc3ccc(-c4cnc([C@@H]5C=C(C)CN5C(=O)[C@@H](NC(=O)OC)C(C)C)[nH]4)cc3)cc2)[nH]1)C(C)C` [Compound 111], less than 1 nM.
Then `COC(=O)N[C@H](C(=O)N1CC(C)=C[C@H]1c1ncc(-c2ccc3cc(-c4ccc(-c5cnc([C@@H]6CCCN6C(=O)[C@@H](NC(=O)OC)C(C)C)[nH]5)cc4)ccc3c2)[nH]1)C(C)C` [Compound 120], with less than 1 nM; and `COC(=O)N[C@H](C(=O)N1CC(C2CC2)=C[C@H]1c1ncc(-c2ccc(-c3ccc4cc(-c5cnc([C@@H]6CCCN6C(=O)[C@@H](NC(=O)OC)C(C)C)[nH]5)ccc4c3)cc2)[nH]1)C(C)C` [Compound 105], with less than 1 nM.
As for `COC(=O)N[C@H](C(=O)N1CC(C)=C[C@H]1c1ncc(-c2ccc3cc(-c4ccc5nc([C@@H]6C=C(C7CC7)CN6C(=O)[C@@H](NC(=O)OC)C(C)C)[nH]c5c4)ccc3c2)[nH]1)C(C)C` [Compound 122], the figure is less than 1 nM.
For `COC(=O)N[C@H](C(=O)N1CC(C)=C[C@H]1c1ncc(-c2ccc3c(c2)Oc2ccc(-c4cnc([C@@H]5C=C(C)CN5C(=O)[C@@H](NC(=O)OC)C(C)C)[nH]4)cc2C3(C)C)[nH]1)C(C)C` [Compound 112], the EC50 is less than 1 nM.
As for `COC(=O)N[C@H](C(=O)N1CC(C)=C[C@H]1c1ncc(-c2ccc3cc(-c4ccc5nc([C@@H]6CCCN6C(=O)[C@@H](NC(=O)OC)C(C)C)[nH]c5c4)ccc3c2)[nH]1)C(C)C` [Compound 119], the figure is less than 1 nM.
As for `COC(=O)N[C@H](C(=O)N1CC(C)=C[C@H]1c1nc2ccc(C#Cc3ccc(-c4cnc([C@@H]5CCCN5C(=O)[C@@H](NC(=O)OC)C(C)C)[nH]4)cc3)cc2[nH]1)C(C)C` [Compound 104], the figure is less than 1 nM; as for `COC(=O)N[C@H](C(=O)N1CC(C2CC2)=C[C@@H]1c1nc2ccc(C#Cc3ccc(-c4cnc([C@@H]5CCCN5C(=O)[C@@H](NC(=O)OC)C(C)C)[nH]4)cc3)cc2[nH]1)C(C)C` [Compound 116], 1 to 9.9 nM; as for `COC(=O)N[C@H](C(=O)N1CC(C2CC2)=C[C@H]1c1nc2ccc(C#Cc3ccc(-c4cnc([C@@H]5CCCN5C(=O)[C@@H](NC(=O)OC)C(C)C)[nH]4)cc3)cc2[nH]1)C(C)C` [Compound 115], less than 1 nM.
As for `COC(=O)N[C@H](C(=O)N1CC(C)=CC1c1ncc(-c2ccc(-c3ccc4cc(-c5cnc([C@@H]6CCCN6C(=O)[C@@H](NC(=O)OC)C(C)C)[nH]5)ccc4c3)cc2)[nH]1)C(C)C` (stereo partly shown) [Compound 101], the figure is less than 1 nM; as for `COC(=O)N[C@H](C(=O)N1CC(C)=C[C@H]1c1ncc(-c2ccc(C#Cc3ccc4nc([C@@H]5CCCN5C(=O)[C@@H](NC(=O)OC)C(C)C)[nH]c4c3)cc2)[nH]1)C(C)C` [Compound 102], less than 1 nM; as for `COC(=O)N[C@H](C(=O)N1CC(C)=C[C@H]1c1ncc(-c2ccc3c(=O)c4cc(-c5cnc([C@@H]6C=C(C)CN6C(=O)[C@@H](NC(=O)OC)C(C)C)[nH]5)ccc4oc3c2)[nH]1)C(C)C` [Compound 113], less than 1 nM.
For the compound `COC(=O)N[C@H](C(=O)N1CC(C2CC2)=C[C@H]1c1ncc(-c2ccc(C#Cc3ccc4nc([C@@H]5CCCN5C(=O)[C@@H](NC(=O)OC)C(C)C)[nH]c4c3)cc2)[nH]1)C(C)C` [Compound 109], the EC50 was less than 1 nM.
`COC(=O)N[C@H](C(=O)N1CC(C)=C[C@H]1c1ncc(-c2ccc3cc(C#Cc4cnc([C@@H]5CCCN5C(=O)[C@@H](NC(=O)OC)C(C)C)[nH]4)ccc3c2)[nH]1)C(C)C` [Compound 123]: the EC50 was less than 1 nM.
Then `COC(=O)N[C@H](C(=O)N1CC(C)=C[C@H]1c1ncc(-c2ccc(-c3ccc4cc(-c5cnc([C@@H]6C=C(C)CN6C(=O)[C@@H](NC(=O)OC)C(C)C)[nH]5)ccc4c3)cc2)[nH]1)C(C)C` [Compound 121], with less than 1 nM; and `COC(=O)N[C@H](C(=O)N1CC(C)=C[C@H]1c1ncc(-c2ccc(C#Cc3ccc4c(ccc5nc([C@@H]6CCCN6C(=O)[C@@H](NC(=O)OC)C(C)C)[nH]c54)c3)cc2)[nH]1)C(C)C` [Compound 118], with less than 1 nM.
